Data as given in patent US12454507B2, “Compounds having a fungicidal activity, their agronomic compositions and use thereof for the control of phytopathogenic fungi” (ISAGRO S.p.A., priority 2019, dated 2025).

What was measured:
[1] = tested on: Puccinia Recondita; assay: Preventive fungicidal activity (5 days) against Puccinia recondita on wheat; format: in vivo; conditions: wheat Salgemma, inoculation 5 days after treatment; for P5 Activity NT: parts developed during the test (NT); for P5 Activity T: parts treated directly (T)
Experimental: Leaves of wheat plants of the […] variety, grown in pots in a conditioned environment at 20° C. and 70% of Relative Humidity (RH), were treated by spraying both sides of the leaves with the compound under examination dispersed in a hydroacetone solution at 20% by volume of acetone. […] After spraying, the plants were kept in a humidity-saturated environment at a temperature ranging from 18 to 24° C. for the incubation period of the fungus (1 day). At the end of this period, the plants were put in a greenhouse with a relative humidity (RH) of 70% and at a temperature of 18-24° C. for 14 days At the end of this period, the external symptoms of the pathogen appeared and it was therefore possible to proceed with the visual evaluation of the intensity of the infection, both on the parts treated directly with the products (T) and on the parts developed during the implementation of the test (NT).

[2] = tested on: Plasmopara viticola; assay: Preventive activity (7 days) against Plasmopara viticola on vines; format: in vivo; conditions: leaf spray, inoculation 7 days after treatment, vine Merlot, reduction of diseased leaf area vs untreated (100=complete effectiveness)
Experimental: Leaves of vine plants, Merlot variety, grown in pots, in a conditioned environment (20±1° C., 70% R.H.) were treated by spraying both sides of the leaves with the products in question. 7 days after the treatment, the plants were inoculated with an aqueous suspension of Plasmopara viticola spores (200,000 spores/cc) by spraying both sides of the leaves with a compressed air gun. After remaining 24 hours in a humidity-saturated environment, at 21° C., the plants were transferred for the incubation period (7 days) in a conditioned environment with 70% R.H. and at 24° C. After this period of time, the external symptoms of the pathogen appeared and it was therefore possible to evaluate the intensity of the infection.

[3] = tested on: Phakopsora pachyrhizi; assay: Preventive fungicidal activity (5 days) against Phakopsora pachyrhizi on soya; format: in vivo; conditions: for P5 Activity: soya Zora, inoculation 5 days after treatment; for control of the pathogen: dose of 125 ppm
[4] = tested on: Zymoseptoria tritici; assay: Antifungal activity in vitro (growth inhibition, 96-well absorbance); format: cell-based; conditions: 20° C., 72 hours (96 or 120 when necessary)
[5] = tested on: Bipolaris sorokiniana; assay: as above; format: cell-based; conditions: 20° C., 72 hours (96 or 120 when necessary)
[6] = tested on: Sclerotinia sclerotiorum; assay: as above; format: cell-based; conditions: 20° C., 72 hours (96 or 120 when necessary)
[7] = tested on: Venturia inaequalis; format: cell-based; conditions: for In vitro antifungal activity, 50% effective doses (EC50): Venturia inaequalis, 20° C., 72 hours (96 or 120 when necessary)
[8] = tested on: Magnaporthe oryzae; format: cell-based; conditions: for In vitro antifungal activity, 50% effective doses (EC50): Magnaporthe oryzae, 20° C., 72 hours (96 or 120 when necessary)
[9] = tested on: Parastagonospora nodorum; assay: Antifungal activity in vitro (growth inhibition, 96-well absorbance); format: cell-based; conditions: 20° C., 72 hours (96 or 120 when necessary)
[10] = tested on: Phytophthora infestans; format: cell-based; conditions: for In vitro antifungal activity, 50% effective doses (EC50): Phytophthora infestans, 20° C., 72 hours (96 or 120 when necessary)
[11] = tested on: Pythium ultimum; format: cell-based; conditions: for In vitro antifungal activity, 50% effective doses (EC50): Pythium ultimum, 20° C., 72 hours (96 or 120 when necessary)
[12] = tested on: Cercospora beticola; assay: Antifungal activity in vitro (growth inhibition, 96-well absorbance); format: cell-based; conditions: 20° C., 72 hours (96 or 120 when necessary)
[13] = tested on: Alternaria alternata; format: cell-based; conditions: 20° C., 72 hours (96 or 120 when necessary)

Row | SMILES | P5 Activity NT ([1]; 125 ppm) | P5 Activity T ([1]; 125 ppm) | P5 Activity NT ([1]; 250 ppm) | P5 Activity T ([1]; 250 ppm) | P7Activity ([2]; 30 ppm) | P7Activity ([2]; 125 ppm) | P5 Activity ([3]; 15 ppm) | P5 Activity ([3]; 30 ppm) | control of the pathogen [3] | In vitro antifungal activity, 50% effective doses (EC50) [4] | In vitro antifungal activity, 50% effective doses (EC50) [5] | In vitro antifungal activity, 50% effective doses (EC50) [6] | In vitro antifungal activity, 50% effective doses (EC50) [7] | In vitro antifungal activity, 50% effective doses (EC50) [8] | In vitro antifungal activity, 50% effective doses (EC50) [9] | In vitro antifungal activity, 50% effective doses (EC50) [10] | In vitro antifungal activity, 50% effective doses (EC50) [12] | further results
1 | COc1ccnc(C(=O)N[C@@H](C)C(=O)O[C@@H](C)C(c2ccc(F)cc2)c2ccc(F)cc2)c1OC(C)=O [CR1, Florypicoxamid, reference compound] | 90% | 99% | 100% | 100% | 10% | 40% | 100% | 100% | – | – | – | – | – | – | – | – | – | –
2 | CCCCCCC[C@H](C)OC(=O)[C@H](C)NC(=O)c1cccc(NC=O)c1O [Compound 249] | 95% | 99% | 100% | 100% | 100% | 100% | 98% | 100% | complete control | – | – | – | – | – | – | – | – | –
3 | C[C@H](NC(=O)c1cccc(NC=O)c1O)C(=O)O[C@@H](C)C(c1ccc(F)cc1)c1ccc(F)cc1 [Compound 165, (2S)-2-(3-formamide-salicylamide) propanoate of (2S)-1,1-bis(4-fluorophenyl) propan-2-yl] | 88% | 95% | 100% | 100% | 100% | 100% | 99% | 100% | complete control | 0.007 µg/mL | 0.11 µg/mL | 0.01 µg/mL | 0.18 µg/mL | 0.2 µg/mL | 0.01 µg/mL | 0.05 µg/mL | 0.19 µg/mL | in vitro antifungal activity (in words) ([7]; V. inaequalis): active; in vitro antifungal activity (in words) ([8]; M. oryzae): active; in vitro antifungal activity (in words) ([10]; P. infestans): active; in vitro antifungal activity (in words) ([11]; P. ultimum): active; In vitro antifungal activity, 50% effective doses (EC50) [11]: 1.54 µg/mL; In vitro antifungal activity, 50% effective doses (EC50) [13]: 0.33 µg/mL
4 | CCCCOC(=O)[C@H](C)OC(=O)[C@H](C)NC(=O)c1cccc(NC=O)c1O [Compound 236] | – | – | – | – | – | – | – | – | – | 0.095 µg/mL | 8.0 µg/mL | 0.18 µg/mL | 1.77 µg/mL | 0.79 µg/mL | 0.009 µg/mL | 1.49 µg/mL | 8.64 µg/mL | –
5 | CC(C)C(=O)OCOc1c(NC=O)cccc1C(=O)N[C@@H](C)C(=O)O[C@@H](C)C(c1ccc(F)cc1)c1ccc(F)cc1 [Compound 156, (2S)-2-[3-formamide-2-(methoxy-(2-methyl)propanoate)-benzamide] of (2S)-1,1-bis(4-fluorophenyl)propan-2-yl] | 93% | 98% | 100% | 100% | 100% | 100% | 100% | 100% | complete control | – | – | – | – | – | – | – | – | –
6 | C[C@H](NC(=O)c1ccccc1O)C(=O)O[C@@H](C)C(c1ccc(F)cc1)c1ccc(F)cc1 [CR2, reference compound] | – | – | – | – | – | – | – | – | – | 0.14 µg/mL | 3.6 µg/mL | 5.38 µg/mL | – | – | 0.24 µg/mL | – | 0.48 µg/mL | In vitro antifungal activity, 50% effective doses (EC50) [13]: 7.57 µg/mL
7 | C[C@H](NC(=O)c1cccc(NC=O)c1O)C(=O)O[C@@H](C)C(=O)OCc1ccccc1 [Compound 248] | – | – | – | – | – | – | – | – | – | 0.17 µg/mL | – | – | – | – | 0.008 µg/mL | 1.14 µg/mL | – | –
8 | CCCCC(CC)COC(=O)[C@H](C)OC(=O)[C@H](C)NC(=O)c1cccc(NC=O)c1O (stereo partly shown) [Compound 239] | – | – | – | – | – | – | – | – | – | 0.067 µg/mL | – | 0.081 µg/mL | – | 0.64 µg/mL | 0.006 µg/mL | 1.62 µg/mL | – | In vitro antifungal activity, 50% effective doses (EC50) [11]: 2.78 µg/mL
9 | CCCCCCCC(C)OC(=O)[C@H](C)NC(=O)c1cccc(NC=O)c1O (stereo partly drawn) [Compound 46, (2S)-2-(3-formamide-salicylamide)-propanoate of nonan-2-yl] | 90% | 98% | 99% | 100% | 100% | 100% | 98% | 99% | complete control | 0.02 µg/mL | 2.68 µg/mL | 0.02 µg/mL | 0.25 µg/mL | – | 0.001 µg/mL | 0.04 µg/mL | 1.34 µg/mL | –
